Here are results for five compounds from patent EP0255343A2, “L-aspartylfenchylamino alcohol derivatives” (priority 1986, dated 1988).

Residues, ends and D or L forms follow the SMILES beside them.

Series [1] is described as follows: Sweetness threshold values determined by a limit method by a panel of 5 skilled flavorists. Type of series: in vivo. The settings on record: for Taste intensity Threshold Values (%): dissolved in water, limit method, panel of 5 skilled flavorists; for Degree of Sweetness (time): relative to sucrose = 1.
The conditions of series [2]: at 80°C and at a pH of 4; cited from earlier work.

For the compound “3-N-(L-aspartyl)amino-1-fenchyl-2-butanol [Compound A]”, in series [1], the “Taste intensity Threshold Values (%)” value worked out at 0.001% and the “Degree of Sweetness (time)” value is on record as 600 time.
Take `COC(=O)C(NC(=O)[C@@H](N)CC(=O)O)C(=O)OC1C2(C)CCC(C2)C1(C)C` (mixture of isomers) [L-aspartyl-DL-aminomalonic acid methyl fenchyl diester]: the stability result in series [2] is recorded as “lower than APM”.
`OC[C@H]1O[C@@](CO)(O[C@H]2O[C@H](CO)[C@@H](O)[C@H](O)[C@H]2O)[C@@H](O)[C@@H]1O` [Sucrose, sucrose]: the “Taste intensity Threshold Values (%)” value in series [1] was 0.6%.
Take `COC(=O)[C@H](Cc1ccccc1)NC(=O)[C@@H](N)CC(=O)O` [APM, L-aspartyl-L-phenylalanine methyl ester] (H-Asp-Phe-OMe): in series [1], the “Taste intensity Threshold Values (%)” value was 0.004% and the “Degree of Sweetness (time)” value is 150 time.
The corresponding values for “3-N-(L-aspartyl)amino-4-fenchyl-2-butanol [Compound B]” are 0.0012% and 500 time.
